Laboratory results from patent US20220194952A1, “TETRAPYRROLIC CONJUGATES AND USES THEREOF FOR IMAGING” (Health Research, Inc., priority 2019, published 2022).

Legend:
[1] = Fluorescence quantum yield and lifetime in benzonitrile (PhCN); assay type: physicochemical
Protocol: (B) Fluorescence decay curve of 4 observed at 787 nm. Excitation wavelength: 651 nm.
(§1) Instrumentation: Measurement of fluorescence quantum yields were carried out on a Hamamatsu C9920-0X(PMA-12) U6039-05 fluorescence spectrofluorometer. Femtosecond laser flash photolysis was conducted using a Clark-MXR 2010 laser system and an optical detection system provided by Ultrafast Systems (Helios). The source for the pump and probe pulses were derived from the fundamental output of Clark laser system (775 nm, 1 mJ pulse-1 and fwhm=150 fs) at a repetition rate of 1 kHz. A second harmonic generator introduced in the path of the laser beam provided […] laser pulses for excitation. A 95% of the fundamental output of the laser was used to generate the second harmonic, while 5% of the deflected output was used for white light generation. Prior to generating the probe continuum, the laser pulse was fed to a delay line that provided an experimental time window of 1.6 ns with a maximum step resolution of 7 fs. The pump beam was attenuated at 5 μJ pulse-1 with a spot size of 2 mm diameter at the sample cell where it was merged with the white probe pulse in a close angle (<10°). […] The photodynamics were monitored by continuous exposure to a xenon lamp for visible region and halogen lamp for near-IR region as a probe light and a photomultiplier tube (Hamamatsu 2949) as a detector.

[2] = Singlet oxygen phosphorescence at 1270 nm, methanol, pulsed laser 532 nm; assay type: physicochemical; conditions: near 5 μM, equi-absorbant at 532 nm, excited at 532 nm
Protocol: The photosensitizers, e. g., HPPH (control), 2 and 4 were individually dissolved in methanol (concentration: 5 μM) in polystyrene cuvettes and excited at 532 nm using a pulsed laser. Phosphorescence of singlet oxygen was detected at 1270 nm.
Before evaluating the imaging and photosensitizing potential of the chlorin 4 with extended ring system, its singlet oxygen producing ability was compared with the related chlorin 2. In brief, both compounds were individually dissolved in methanol in equi-absorbant (at 532 nm) concentrations near 5 μM and excited at 532 nm using a pulsed laser. The phosphorescence of singlet oxygen was detected at 1270 nm. From the results summarized in FIG. 4, it can be seen that compared to chlorin 2 with a five-member isocyclic ring, the related analog 4 with an extended ring system had remarkably lower singlet oxygen producing ability. Singlet oxygen quantum yields were φ=0.29 and φ=0.02 respectively, compared to HPPH φ=0.45.

Colon26 tumors = assay: In vivo whole body tumor fluorescence imaging (IVIS Spectrum); set-up: species or system BALB/c mice; conditions: non-radioactive analogs, i.v., post-injection
Protocol: Before evaluating in vivo PDT efficacy of PS 4 by exposing the tumors with light, the time point for optimal tumor uptake of PS was determined by whole body fluorescence imaging of tumored mice at various time points after injecting the PS.
The multi-spectral imaging system, IVIS Spectrum (Perkin-Elmer) along with Living Image (image acquisition and analysis software) was used. IVIS Spectrum has the capability to use either trans-illumination (from the bottom) or epi-illumination (from the top) to illuminate in vivo fluorescent sources. […] Regions of interest (ROI) were defined for areas of compound accumulation (tumor, liver, skin) and total and average signal within the region were recorded. Fluorescent intensity is expressed as the total radiant efficiency ([p/s]/[μW/cm^2]. Results are expressed as mean total radiant efficiency of three mice±SD.

[3] = Nanosecond laser flash transient absorption of triplet excited state in PhCN; assay type: physicochemical
Protocol: The decay time profiles at 580 nm in (b) argon- and (c) air-saturated PhCN. The single-exponential fitting curves are shown as gray lines.
Singlet oxygen is generated by energy transfer from the triplet excited state of 4 to molecular oxygen (O2). […] The decay profile of T-T absorption was obeyed with the single exponential curve (FIG. 6b). The lifetime was determined to be τ=38 μs. […] The energy transfer rate constant was determined to be 1.4×10^9M^−1 s^−1, indicating the efficient energy transfer occurred between the triplet excited state of 4 and O2 to for singlet oxygen generation.
as §1

Question: Which fluorescence lifetime ([1]; PhCN, decay observed at 787 nm, excitation 651 nm) does the source give for “methyl 3-[1′-(m-iodobenzyloxy)ethyl]-3-devinyl-13^3-keto-13^2-methoxycyclohexene [Compound 4]” here?
Answer: The fluorescence lifetime was 0.81 ns.

Question: And the “Fluorescence quantum yield Φ” value ([1]; benzonitrile (PhCN), excited at 532 nm)?
Answer: Its value is 0.013.

Question: What about the “Singlet oxygen quantum yield φ” value [2] of the same substance?
Answer: Its value is 0.02.

Question: What about the “time of optimal uptake in tumor (fluorescence imaging)” value (Colon26 tumors) of the same substance?
Answer: Its value is 24 h.

Question: What about the “energy transfer rate constant, triplet excited state to O2” value ([3]; PhCN) of the same substance?
Answer: The value was 1.4e+09 M⁻¹ s⁻¹.

Question: And the “triplet decay rate constant in the presence of dissolved O2” value ([3]; air-saturated PhCN)?
Answer: The value was 2.3e+06 s⁻¹.

Question: What about the “triplet excited state lifetime τ” value ([3]; deaerated (argon-saturated) PhCN, T-T absorption decay at 580 nm) of the same substance?
Answer: Its value is 38 μs.
